The values below come from patent US20250361281A1, “AMYLIN RECEPTOR (hAMY3R) AGONISTS WITH IMPROVED CHEMICAL STABILITY” (GUBRA A/S, priority 2022, published 2025).

Data set [1] can be described thus: Determination of dimer and HMWP formation (size exclusion chromatography). In kind it is physicochemical. As to conditions: 50 mM phosphate buffer pH 7, 40° C., up to 28 days. On the procedure: General Protocol for Determination of Dimer and HMWP Formation
Peptides were dissolved in 50 mM phosphate buffer (pH 7) and incubated at 40° C. for up to 28 days. The samples were then analysed using size exclusion chromatography analysis to quantify the amount of High Molecular Weight Products (HMWP), which is an overall term for covalently linked peptide dimers, trimers, and higher order multimers. Analyses were carried out on a Dionex Ultimate 3000 RS UHPLC Focused chromatography system (Thermo Scientific) equipped with a Acquity Protein BEH SEC 1.7 μm 4.6×300 mm 125 Å column (Waters part no 186006506). The solvent system consisted of two mobile phases that are assumed to break all non-covalent interactions between peptides leaving only monomeric peptide and covalent HMWP to be analysed. • Mobile phase A (all v/v %): 95% H2O, 5% MeCN (Acetonitrile), 0.1% TFA (Trifluoroacetic acid) • Mobile phase B (all v/v %): 95% MeCN, 5% H2O, 0.1% TFA
The typically load was 1 μl of 1.0 mg/ml, and the detection signal at 215 nm should optimally be between 0.1 and 1.5 abs units. Isocratic elution was done with 60% mobile phase B and a flow of 0.3 ml/min in 20 minutes. Chromatograms were integrated as HMWP (all peaks in front of the main peak) The amount of the various species was reported as area relative to total area in percentage.

Data set [2] can be described thus: Physical stability of peptide analogues (Thioflavin T fibrillation). The data set is classed as physicochemical. As to conditions: ThT fluorescence, 40° C., shaking, four days; pH 4 or pH 7 buffer. The protocol:
General Protocols for Determination of Physical Stability of Peptide Analogues
Peptides were dissolved in buffers (50 mM sodium acetate at pH 4 or 50 mM sodium phosphate at pH 7) and incubated for one hour. The samples were then divided into two replicates of 80 μl in a black 384 well plate (μ-clear, Greiner Bio-One) and mixed with Thioflavin T (ThT) to a final concentration of 4 μM. The plate was sealed and placed in a plate reader (CLARIOstar, BMG) where the temperature was set at 40° C. during the course of the experiment. The samples were further stressed by shaking the plate at 700 rpm (linear) for five minutes before every measurement. The fluorescence was measured every 10 min for four days by exciting the ThT at 450 nm and measuring the emission at 480 nm. For each peptide, the ThT signal over time was smoothened using Local Polynomial Regression fitting (LOESS) as implemented in the statistical programming environment R. For the smoothened data, the maximum ThT signal was normalized in percent between the maximum ThT signal for hAMY and the buffer background.

The conditions of data set [3]: previously shown; cited from earlier work.
Data set [4] can be described thus: Determination of deamidation and isomerization (LC-MS). The data set is classed as physicochemical. As to conditions: 50 mM phosphate buffer pH 7, 40° C., up to 28 days. On the procedure:
General Protocol for Determination of Deamidation and Isomerization
Peptides were dissolved in 50 mM phosphate buffer (pH 7) and incubated at 40° C. for up to 28 days. The samples were then analysed on a Exploris120 mass spectrometer coupled to a Vanquish Tandem UPLC (both Thermo Fisher) equipped with an Acquity BEH C18 column (1.7 um, 2.1×50 mm, 130A, Waters). Peptides were eluted using a linear gradient starting at 5% over 7.5 min to 70% buffer B at a flow rate of 0.4 mL/min (buffer B=100% acetonitrile with 0.1% formic acid; buffer A=100% water with 0.1% formic acid). Data were acquired in data-dependent acquisition mode at a MS1 resolution of 60.000, and a MS2 resolution of 30.000 in positive mode (Top4). Peptides were fragmented with a normalized collision energy of 25%. Deamidation and isomerization were quantified using area under the curve integration.

For a further data set, the target named is T1, hAMY3 receptor (Homo sapiens, UniProt O60896+P30988).
T1 construct: monoclonal sub-clone
T1 sequence (P30988 25-474): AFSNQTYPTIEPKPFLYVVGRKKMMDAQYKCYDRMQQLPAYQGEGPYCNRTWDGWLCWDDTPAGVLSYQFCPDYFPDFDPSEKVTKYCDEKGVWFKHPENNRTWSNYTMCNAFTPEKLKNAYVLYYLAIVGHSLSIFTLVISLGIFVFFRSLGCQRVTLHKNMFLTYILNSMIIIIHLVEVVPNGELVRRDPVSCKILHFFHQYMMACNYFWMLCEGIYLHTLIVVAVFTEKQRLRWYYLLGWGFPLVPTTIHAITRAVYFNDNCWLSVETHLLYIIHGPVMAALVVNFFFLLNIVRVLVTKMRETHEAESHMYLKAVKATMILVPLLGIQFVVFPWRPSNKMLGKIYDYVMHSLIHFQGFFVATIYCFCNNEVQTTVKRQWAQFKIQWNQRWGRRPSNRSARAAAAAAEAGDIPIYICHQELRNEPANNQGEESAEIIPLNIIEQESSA
T1 sequence (O60896 24-148 partner): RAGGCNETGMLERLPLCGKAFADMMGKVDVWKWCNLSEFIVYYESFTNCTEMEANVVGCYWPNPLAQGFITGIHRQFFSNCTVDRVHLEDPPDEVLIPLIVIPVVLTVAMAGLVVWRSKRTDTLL
As to conditions: previously shown (WO 2022/063925 A1); read-out: hAMY3R EC50; cited from earlier work.

Another data set has as its target T2, hAM1 receptor (Homo sapiens, UniProt O60895+Q16602).
T2 construct: monoclonal sub-clone
As to conditions: previously shown (WO 2022/063925 A1); read-out: hAM1R EC50; cited from earlier work.

For data set [5], the target named is human adrenomedullin receptor 1 (hAM1R) (human, UniProt Q16602 23-461; O60895 43-175). As to the kind of experiment: cell-based or functional assay.
Sequence of human adrenomedullin receptor 1 (hAM1R) (Q16602 23-461, chain 1 of 2): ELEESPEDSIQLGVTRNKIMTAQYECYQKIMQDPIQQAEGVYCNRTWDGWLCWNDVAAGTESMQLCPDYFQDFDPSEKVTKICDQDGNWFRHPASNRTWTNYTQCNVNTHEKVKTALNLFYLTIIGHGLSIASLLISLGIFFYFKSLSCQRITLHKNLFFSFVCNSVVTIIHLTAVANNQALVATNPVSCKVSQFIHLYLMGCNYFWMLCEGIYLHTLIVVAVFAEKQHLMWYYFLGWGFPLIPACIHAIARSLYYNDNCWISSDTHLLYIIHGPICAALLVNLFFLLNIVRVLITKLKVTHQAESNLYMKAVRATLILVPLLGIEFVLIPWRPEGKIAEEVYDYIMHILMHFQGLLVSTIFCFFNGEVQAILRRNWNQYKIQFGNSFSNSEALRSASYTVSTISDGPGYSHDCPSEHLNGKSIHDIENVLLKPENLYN
Sequence of human adrenomedullin receptor 1 (hAM1R) (O60895 43-175, chain 2 of 2): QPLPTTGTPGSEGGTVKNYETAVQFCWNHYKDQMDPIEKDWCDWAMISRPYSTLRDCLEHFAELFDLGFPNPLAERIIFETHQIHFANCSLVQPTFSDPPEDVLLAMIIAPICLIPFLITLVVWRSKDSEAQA
The target of data set [6] is T3, human amylin receptor 3 (hAMY3R) (human, UniProt P30988 25-474; O60896 24-148).
T3 sequence (looked up) 1: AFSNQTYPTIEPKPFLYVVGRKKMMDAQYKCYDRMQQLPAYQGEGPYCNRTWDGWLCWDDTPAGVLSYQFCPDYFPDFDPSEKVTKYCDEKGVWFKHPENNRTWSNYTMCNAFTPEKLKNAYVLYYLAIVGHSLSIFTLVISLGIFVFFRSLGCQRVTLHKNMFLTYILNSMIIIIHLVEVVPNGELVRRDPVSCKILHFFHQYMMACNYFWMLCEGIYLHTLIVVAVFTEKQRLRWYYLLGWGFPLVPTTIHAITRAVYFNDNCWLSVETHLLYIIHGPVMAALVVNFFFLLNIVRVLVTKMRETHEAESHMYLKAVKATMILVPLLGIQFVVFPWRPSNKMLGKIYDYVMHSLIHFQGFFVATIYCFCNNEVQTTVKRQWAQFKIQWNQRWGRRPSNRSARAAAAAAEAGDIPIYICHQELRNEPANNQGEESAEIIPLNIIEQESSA
T3 sequence (looked up) 2: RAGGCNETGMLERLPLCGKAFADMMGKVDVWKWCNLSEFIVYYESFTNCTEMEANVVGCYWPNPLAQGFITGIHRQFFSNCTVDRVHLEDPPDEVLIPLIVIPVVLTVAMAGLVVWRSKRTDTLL
Briefly: cell-based or functional assay.

Starred links: 1 amine or outer side, 2 acyl side, 3 side chain; linkers in the order of their positions; H or OH if unused. Positions of bridges follow the written chain, without caps; N, C: chain ends. Non-standard residues stand in square brackets, D forms with d. Residues, ends and D or L forms follow the SMILES beside them. No end group written: not given here. *: point of attachment. C20 diacid = O=C(O)CCCCCCCCCCCCCCCCCCC(=O)*; γGlu = O=C(O)[C@H](CCC(=O)[*:2])N[*:1]; Hyp = O=C(O)[C@@H]1C[C@@H](O)CN1

T2 sequence (Q16602 23-461): as the sequence (Q16602 23-461, chain 1 of 2) above
T2 sequence (O60895 43-175 partner): as the sequence (O60895 43-175, chain 2 of 2) above

With `CC[C@H](C)[C@H](NC(=O)[C@H](CCC(N)=O)NC(=O)[C@H](CCC(=O)O)NC(=O)[C@H](C)NC(=O)[C@H](CC(C)C)NC(=O)[C@H](CCCNC(=N)N)NC(=O)[C@H](CCC(N)=O)NC(=O)[C@@H](NC(=O)[C@@H](NC(=O)[C@@H]1CSSC[C@H](NC(=O)[C@H](CCCCN)NC(=O)CC[C@H](NC(=O)CCCCCCCCCCCCCCCCCCC(=O)O)C(=O)O)C(=O)N[C@@H](CC(N)=O)C(=O)N[C@@H]([C@@H](C)O)C(=O)N[C@@H](C)C(=O)N[C@@H]([C@@H](C)O)C(=O)N1)[C@@H](C)O)C(C)C)C(=O)N[C@@H](C)C(=O)N[C@@H](CCC(N)=O)C(=O)N[C@@H](Cc1ccccc1)C(=O)N[C@H](C(=O)N[C@@H](CC(=O)O)C(=O)N[C@@H](CCCCN)C(=O)N[C@@H](CC(=O)O)C(=O)N[C@@H](CCCCN)C(=O)N[C@@H](CC(=O)O)C(=O)N[C@@H](CC(N)=O)C(=O)N[C@H](C(=O)N[C@@H](C)C(=O)N1CCC[C@H]1C(=O)N1CCC[C@H]1C(=O)N[C@H](C(=O)N[C@@H](CC(N)=O)C(=O)N[C@H](C(=O)NCC(=O)N[C@@H](CO)C(=O)N[C@@H](CC(N)=O)C(=O)NCC(=O)N1C[C@H](O)C[C@H]1C(N)=O)C(C)C)[C@@H](C)O)C(C)C)[C@@H](C)O` [SEQ ID NO: 3] ({C20 diacid-γGlu}-KCNTATCTVQRLAEQIAQFTDKDKDNVAPPTNVGSNG[Hyp]-NH2; disulfide 2-7), the “Dimerization and HMWP formation” value in data set [1] came out at 12%. Further, in data set [2], the Fibril formation result was “No”. In addition, the fibrillation result in data set [3] is recorded as “no fibrillation”. In data set [4], this molecule registered a Deamidation of 97% and an Isomerization of 5%. The EC50 at hAMY3 receptor was 14 nM. Also, the EC50 on hAM1 receptor was more than 5000 nM.

Turning to KCNTATCATQRLANFLVHSSNNFGAILSSTNVGSNTY-NH2 (disulfide 2-7) [human amylin hAMY1-37], in data set [5], the “hAM1R EC50 (nM), cAMP accumulation” value is more than 5000 nM. Moreover, in data set [6], the “hAMY3R EC50 (nM), cAMP accumulation” value came to 0.01 nM.

On to {C20 diacid-γGlu}-KCNTATCTVQRLAEQIAQFTDKDKDNVAPPTNVGSNG[Hyp] (disulfide 2-7; also: C-terminal generally amidated (-CONH2) per the definitions) [reference polypeptide KCNTATCTVQRLAEQIAQFTDKDKDNVAPPTNVGSNG[Hyp] (SEQ ID NO: 3)], for which the “hAM1R EC50 (nM), cAMP accumulation” value in data set [5] is more than 5000 nM. For the same molecule, in data set [6], the “hAMY3R EC50 (nM), cAMP accumulation” value is 0.014 nM.

B1: polypeptide KCLTATCTVARLAEQIAQFTDKDKENVAPPTAVGSAG[Hyp] (SEQ ID NO: 4) (peptide)
peptide: {C20 diacid-γGlu}-KCLTATCTVARLAEQIAQFTDKDKENVAPPTAVGSAG[Hyp]
modifications: bridge 2-7 via ‑S‑CH2‑S‑; also: C-terminal generally amidated (-CONH2) per the definitions
As to B1, in data set [5], the “hAM1R EC50 (nM), cAMP accumulation” value is more than 5000 nM. Besides, the “hAMY3R EC50 (nM), cAMP accumulation” value in data set [6] was 0.009 nM.
